This note sets out measurements from PubChem BioAssay AID1259407 (Chemical Carcinogenesis Research Information System (CCRIS), 2018).

The test system of the data set is CCRIS mutagenicity, Ames/micronucleus/aberration tests. The experiment in a line: CCRIS mutagenicity studies.
[1] abbreviates: Test System: AMES SALMONELLA TYPHIMURIUM, Strain/Indicator: TA100, Metabolic Activation: NONE, Method: STANDARD PLATE.
Where [2] appears, read: Test System: AMES SALMONELLA TYPHIMURIUM, Strain/Indicator: TA98, Metabolic Activation: NONE.

SMILES strings stand for the structures. Active and inactive are the calls of the source. How the calls were made is not given here.

On to `O=[N+]([O-])c1ccc2c(CCO)c[nH]c2c1`, for which the mutagenic call runs as follows: (Test System: AMES SALMONELLA TYPHIMURIUM, Strain/Indicator: TA97A, Metabolic Activation: NONE, Method: STANDARD PLATE) “active; positive”; (Test System: AMES SALMONELLA TYPHIMURIUM, Strain/Indicator: TA98(1,8-DNP6), Metabolic Activation: NONE, Method: STANDARD PLATE) “active; positive”; (Test System: AMES SALMONELLA TYPHIMURIUM, Strain/Indicator: TA98(NR), Metabolic Activation: NONE, Method: STANDARD PLATE) “active; positive”; (Test System: AMES SALMONELLA TYPHIMURIUM, Strain/Indicator: TA98, Metabolic Activation: NONE, Method: SEM (1.1) 100-2000 NM (TEST MATERIAL SOLVENT: DMSO) 100-2000 N 2000 N) “active; positive”; under setting [1], “active; positive”; (Test System: AMES SALMONELLA TYPHIMURIUM, Strain/Indicator: TA1535, Metabolic Activation: NONE, Method: STANDARD PLATE) “inactive; negative”. The mutagenic call (Test System: AMES SALMONELLA TYPHIMURIUM, Strain/Indicator: TA1537, Metabolic Activation: NONE, Method: STANDARD PLATE) is “active; positive”.
Turning to `CC(=O)N[C@@H](CS/C(Cl)=C(\Cl)C(Cl)=C(Cl)Cl)C(=O)O`, the mutagenic call runs as follows: (Test System: AMES SALMONELLA TYPHIMURIUM, Strain/Indicator: TA100, Metabolic Activation: NONE, Method: PREINCUBATION) “inactive; negative”; (Test System: AMES SALMONELLA TYPHIMURIUM, Strain/Indicator: TA100, Metabolic Activation: RAT, KIDNEY, CYTOSOL, Method: PREINCUBATION) “active; positive”; (Test System: AMES SALMONELLA TYPHIMURIUM, Strain/Indicator: TA100, Metabolic Activation: RAT, LIVER, S-9, AROCLOR 1254 (10%), Method: PREINCUBATION) “active; positive”.
Consider `C1=C2c3ccccc3CCC2CCC1` (centres undefined), for which the mutagenic call is, setting by setting: (Test System: AMES SALMONELLA TYPHIMURIUM, Strain/Indicator: TA98, Metabolic Activation: RAT, LIVER, S-9, SODIUM PHENOBARBITAL AND BETA-NAPHTHOFLAVONE, Method: STANDARD PLATE) “active; positive”; (Test System: AMES SALMONELLA TYPHIMURIUM, Strain/Indicator: TA100, Metabolic Activation: RAT, LIVER, S-9, SODIUM PHEOBARBITAL AND BETA-NAPHTHOFLAVONE, Method: STANDARD PLATE) “active; positive”.
Turning to `Cn1c(N)nc2nc3ccncc3cc21`, the mutagenic call is “inactive; negative” (Test System: AMES SALMONELLA TYPHIMURIUM, Strain/Indicator: TA98, Metabolic Activation: RAT, LIVER, S-9, AROCLOR 1254A, Method: STANDARD PLATE) and “active; positive” (Test System: AMES SALMONELLA TYPHIMURIUM, Strain/Indicator: YG1024, Metabolic Activation: RAT, LIVER, S-9, AROCLOR 1254A, Method: STANDARD PLATE).
Turning to `CC(C)NCC(O)c1ccc(NS(C)(=O)=O)cc1` (centres undefined), the mutagenic call reads like this: under setting [2], “inactive; negative”; (Test System: AMES SALMONELLA TYPHIMURIUM, Strain/Indicator: TA98, Metabolic Activation: RAT, LIVER, S-9, AROCLOR 1254) “inactive; negative”; (Test System: AMES SALMONELLA TYPHIMURIUM, Strain/Indicator: TA100, Metabolic Activation: NONE) “inactive; negative”; (Test System: AMES SALMONELLA TYPHIMURIUM, Strain/Indicator: TA100, Metabolic Activation: RAT, LIVER, S-9, AROCLOR 1254) “inactive; negative”; (Test System: AMES SALMONELLA TYPHIMURIUM, Strain/Indicator: TA1535, Metabolic Activation: NONE) “inactive; negative”; (Test System: AMES SALMONELLA TYPHIMURIUM, Strain/Indicator: TA1535, Metabolic Activation: RAT, LIVER, S-9, AROCLOR 1254) “inactive; negative”. Moreover, the mutagenic call reads like this: (Test System: AMES SALMONELLA TYPHIMURIUM, Strain/Indicator: TA1537, Metabolic Activation: NONE) “inactive; negative”; (Test System: AMES SALMONELLA TYPHIMURIUM, Strain/Indicator: TA1537, Metabolic Activation: RAT, LIVER, S-9, AROCLOR 1254) “inactive; negative”; (Test System: UDS HUMAN HEPATOCYTES, Strain/Indicator: THY INCORP, Metabolic Activation: NONE, Method: AUTORADIOGRAPHY) “inactive; negative”; (Test System: UDS RAT HEPATOCYTES, Strain/Indicator: THY INCORP, Metabolic Activation: NONE, Method: AUTORADIOGRAPHY) “inactive; negative”.
Regarding `O=[N+]([O-])c1ccc2ccc3c4ccccc4c([N+](=O)[O-])c4ccc1c2c43`, the mutagenic call is “active; positive” (Test System: AMES SALMONELLA TYPHIMURIUM, Strain/Indicator: TA98(1,8-DNP6), Metabolic Activation: NONE); “active; positive” (Test System: AMES SALMONELLA TYPHIMURIUM, Strain/Indicator: TA98(NR), Metabolic Activation: NONE); “active; positive” (Test System: AMES SALMONELLA TYPHIMURIUM, Strain/Indicator: TA98(NR), Metabolic Activation: NONE, Method: PREINCUBATION); “active; positive” under setting [2]; “active; positive” (Test System: AMES SALMONELLA TYPHIMURIUM, Strain/Indicator: TA98, Metabolic Activation: NONE, Method: PREINCUBATION); “active; positive” (Test System: AMES SALMONELLA TYPHIMURIUM, Strain/Indicator: TA98, Metabolic Activation: NONE, Method: STANDARD PLATE). For the same compound, under setting [1], the mutagenic call was “active; positive”.
Take `CCCCOc1ccc(N=O)cc1`: the mutagenic call under setting [1] is “active; positive”.
In the case of `CC(=O)C[C@@H]1CCC(=O)CCC(=O)O[C@H](CC(C)=O)CCC(=O)CCC(=O)O1`, the mutagenic call (Test System: CHINESE HAMSTER V-79, Strain/Indicator: V-79 (HPRT)/6-THIOGUANINE, Metabolic Activation: NONE) was “inactive; negative”.
`C[C@@H]1CC2c3cc(Br)cc4c3c(cn4CC3CC3)C[C@H]2N(C)C1` (some centres undefined): the mutagenic call (Test System: AMES SALMONELLA TYPHIMURIUM, Strain/Indicator: TA100, Metabolic Activation: RAT, LIVER, S-9, AROCLOR 1254, Method: STANDARD PLATE) is “inactive; negative”.
On to `Fc1cnc2ccc3ccccc3c2c1`, for which, under “Test System: AMES SALMONELLA TYPHIMURIUM, Strain/Indicator: TA100, Metabolic Activation: RAT, LIVER, S-9, PHENOBARBITAL AND 5,6-BENZOFLAVONE, Method: PREINCUBATION”, the mutagenic call was “active; positive”.
Consider `Cc1ccc(N)cc1N=Nc1cc(N)ccc1C`, for which the mutagenic call runs as follows: (Test System: AMES SALMONELLA TYPHIMURIUM, Strain/Indicator: TA98, Metabolic Activation: NONE, Method: SUSPENSION/PLATE) “inactive; negative”; (Test System: AMES SALMONELLA TYPHIMURIUM, Strain/Indicator: TA98, Metabolic Activation: RAT, LIVER, S-9, PHENOBARBITAL AND 5,6-BENZOFLAVONE, Method: SUSPENSION/PLATE) “active; positive”; (Test System: AMES SALMONELLA TYPHIMURIUM, Strain/Indicator: TA100, Metabolic Activation: NONE, Method: SUSPENSION/PLATE) “inactive; negative”; (Test System: AMES SALMONELLA TYPHIMURIUM, Strain/Indicator: TA100, Metabolic Activation: RAT, LIVER, S-9, PHENOBARBITAL AND 5,6-BENZOFLAVONE, Method: SUSPENSION/PLATE) “active; positive”.
